Data reported in PMC3672506, “A useful EGFR-TK ligand for tumor diagnosis with SPECT: development of radioiodinated 6-(3-morpholinopropoxy)-7-ethoxy-4-(3′-iodophenoxy)quinazoline” (Annals of Nuclear Medicine, 2013).
Where two headings read alike, the source gives them in different places.

Type: in vivo
Details: normal ddY mice; for Blood radioactivity / Bone radioactivity / Brain radioactivity / Colon radioactivity / Heart radioactivity / Intestine radioactivity / Kidney radioactivity / Liver radioactivity / Lung radioactivity / Muscle radioactivity / Pancreas radioactivity / Skin radioactivity / Spleen radioactivity / Stomach radioactivity / Thyroid radioactivity: i.v.
Experimental: [^125I]PYK (37 kBq, 74 TBq/mmol) in 0.1 mL saline was injected intravenously into ddY male mice (5 weeks old, 25–30 g, n = 4) via the lateral tail vein. At the desired time (5 min—24 h) interval after administration, the animals were sacrificed by decapitation. Samples of blood and tissues of interest were excised and weighed. Radioactivity was measured using a well-type NaI(Tl) scintillation gamma counter. The results were expressed in terms of percentage of injected dose per gram of blood or tissue.
[^125I]PYK was transported well into various organs and disappeared slowly from the blood. In the liver highest uptake and rapid clearance were observed. The lungs, kidney, heart, pancreas, spleen, and brain uptakes were similar pattern to that of the liver. Furthermore, the increase in [^125I]PYK uptake in the stomach and thyroid as deiodination parameters were not found.

CCOc1cc2ncnc(Oc3cccc([125I])c3)c2cc1OCCCN1CCOCC1 [[^125I]PYK]
in vivo stability (deiodination: stomach and thyroid uptake): good stability | Blood radioactivity (5 min after injection): 0.98 ± 0.61 % injected dose per gram tissu | Bone radioactivity (5 min after injection): 1.13 ± 0.28 % injected dose per gram tissu | Brain radioactivity (5 min after injection): 2.07 ± 0.07 % injected dose per gram tissu | Colon radioactivity (5 min after injection): 1.89 ± 0.37 % injected dose per gram tissu | Heart radioactivity (5 min after injection): 3.47 ± 0.29 % injected dose per gram tissu | Intestine radioactivity (5 min after injection): 4.57 ± 0.63 % injected dose per gram tissu | Kidney radioactivity (5 min after injection): 15.1 ± 1.38 % injected dose per gram tissu | Liver radioactivity (5 min after injection): 10.5 ± 0.92 % injected dose per gram tissu | Lung radioactivity (5 min after injection): 11.89 ± 2.86 % injected dose per gram tissu | Muscle radioactivity (5 min after injection): 1.78 ± 0.13 % injected dose per gram tissu | Pancreas radioactivity (5 min after injection): 6.95 ± 0.49 % injected dose per gram tissu | Skin radioactivity (5 min after injection): 0.68 ± 0.13 % injected dose per gram tissu | Spleen radioactivity (5 min after injection): 4.42 ± 0.95 % injected dose per gram tissu | Stomach radioactivity (5 min after injection): 2.41 ± 0.59 % injected dose per gram tissu | Thyroid radioactivity (5 min after injection): 0.05 ± 0.04 % injected dose per organ | Blood radioactivity (15 min after injection): 1.05 ± 0.08 % injected dose per gram tissu | Bone radioactivity (15 min after injection): 1.36 ± 0.39 % injected dose per gram tissu | Brain radioactivity (15 min after injection): 3.15 ± 1.22 % injected dose per gram tissu | Colon radioactivity (15 min after injection): 2.21 ± 0.48 % injected dose per gram tissu | Heart radioactivity (15 min after injection): 1.76 ± 0.89 % injected dose per gram tissu | Intestine radioactivity (15 min after injection): 5.57 ± 1.69 % injected dose per gram tissu | Kidney radioactivity (15 min after injection): 15.6 ± 1.33 % injected dose per gram tissu | Liver radioactivity (15 min after injection): 13.9 ± 2.47 % injected dose per gram tissu | Lung radioactivity (15 min after injection): 6.85 ± 1.99 % injected dose per gram tissu | Muscle radioactivity (15 min after injection): 0.97 ± 0.15 % injected dose per gram tissu | Pancreas radioactivity (15 min after injection): 5.52 ± 0.50 % injected dose per gram tissu | Skin radioactivity (15 min after injection): 0.91 ± 0.13 % injected dose per gram tissu | Spleen radioactivity (15 min after injection): 4.23 ± 0.90 % injected dose per gram tissu | Stomach radioactivity (15 min after injection): 3.03 ± 0.36 % injected dose per gram tissu | Thyroid radioactivity (15 min after injection): 0.05 ± 0.03 % injected dose per organ | Blood radioactivity (30 min after injection): 0.80 ± 0.07 % injected dose per gram tissu | Bone radioactivity (30 min after injection): 0.60 ± 0.19 % injected dose per gram tissu | Brain radioactivity (30 min after injection): 0.82 ± 0.33 % injected dose per gram tissu | Colon radioactivity (30 min after injection): 2.33 ± 0.40 % injected dose per gram tissu | Heart radioactivity (30 min after injection): 1.43 ± 0.16 % injected dose per gram tissu | Intestine radioactivity (30 min after injection): 9.11 ± 0.57 % injected dose per gram tissu | Kidney radioactivity (30 min after injection): 12.6 ± 2.36 % injected dose per gram tissu | Liver radioactivity (30 min after injection): 13.3 ± 1.83 % injected dose per gram tissu | Lung radioactivity (30 min after injection): 4.40 ± 1.60 % injected dose per gram tissu | Muscle radioactivity (30 min after injection): 1.02 ± 0.53 % injected dose per gram tissu | Pancreas radioactivity (30 min after injection): 3.42 ± 0.33 % injected dose per gram tissu | Skin radioactivity (30 min after injection): 1.02 ± 0.08 % injected dose per gram tissu | Spleen radioactivity (30 min after injection): 3.70 ± 1.24 % injected dose per gram tissu | Stomach radioactivity (30 min after injection): 3.41 ± 0.37 % injected dose per gram tissu | Thyroid radioactivity (30 min after injection): 0.01 ± 0.01 % injected dose per organ | Blood radioactivity (1 h after injection): 0.83 ± 0.16 % injected dose per gram tissu | Bone radioactivity (1 h after injection): 1.81 ± 2.40 % injected dose per gram tissu | Brain radioactivity (1 h after injection): 0.47 ± 0.29 % injected dose per gram tissu | Colon radioactivity (1 h after injection): 3.30 ± 0.10 % injected dose per gram tissu | Heart radioactivity (1 h after injection): 1.33 ± 0.23 % injected dose per gram tissu | Intestine radioactivity (1 h after injection): 15.84 ± 2.63 % injected dose per gram tissu | Kidney radioactivity (1 h after injection): 7.94 ± 0.37 % injected dose per gram tissu | Liver radioactivity (1 h after injection): 12.3 ± 2.45 % injected dose per gram tissu | Lung radioactivity (1 h after injection): 3.42 ± 0.83 % injected dose per gram tissu | Muscle radioactivity (1 h after injection): 0.65 ± 0.04 % injected dose per gram tissu | Pancreas radioactivity (1 h after injection): 2.47 ± 0.43 % injected dose per gram tissu | Skin radioactivity (1 h after injection): 0.99 ± 0.06 % injected dose per gram tissu | Spleen radioactivity (1 h after injection): 2.44 ± 0.35 % injected dose per gram tissu | Stomach radioactivity (1 h after injection): 4.33 ± 0.76 % injected dose per gram tissu | Thyroid radioactivity (1 h after injection): 0.03 ± 0.01 % injected dose per organ | Blood radioactivity (3 h after injection): 0.50 ± 0.13 % injected dose per gram tissu | Bone radioactivity (3 h after injection): 0.25 ± 0.16 % injected dose per gram tissu | Brain radioactivity (3 h after injection): 0.27 ± 0.05 % injected dose per gram tissu | Colon radioactivity (3 h after injection): 21.14 ± 5.62 % injected dose per gram tissu | Heart radioactivity (3 h after injection): 0.64 ± 0.25 % injected dose per gram tissu | Intestine radioactivity (3 h after injection): 14.82 ± 7.80 % injected dose per gram tissu | Kidney radioactivity (3 h after injection): 13.80 ± 9.25 % injected dose per gram tissu | Liver radioactivity (3 h after injection): 10.94 ± 7.67 % injected dose per gram tissu | Lung radioactivity (3 h after injection): 1.75 ± 0.18 % injected dose per gram tissu | Muscle radioactivity (3 h after injection): 1.00 ± 1.27 % injected dose per gram tissu | Pancreas radioactivity (3 h after injection): 2.18 ± 0.92 % injected dose per gram tissu | Skin radioactivity (3 h after injection): 0.47 ± 0.46 % injected dose per gram tissu | Spleen radioactivity (3 h after injection): 0.99 ± 0.56 % injected dose per gram tissu | Stomach radioactivity (3 h after injection): 0.59 ± 0.23 % injected dose per gram tissu | Thyroid radioactivity (3 h after injection): 0.05 ± 0.04 % injected dose per organ | Blood radioactivity (6 h after injection): 0.29 ± 0.03 % injected dose per gram tissu | Bone radioactivity (6 h after injection): 0.23 ± 0.02 % injected dose per gram tissu | Brain radioactivity (6 h after injection): 0.11 ± 0.03 % injected dose per gram tissu | Colon radioactivity (6 h after injection): 22.10 ± 7.54 % injected dose per gram tissu | Heart radioactivity (6 h after injection): 0.63 ± 0.21 % injected dose per gram tissu | Intestine radioactivity (6 h after injection): 8.53 ± 1.84 % injected dose per gram tissu | Kidney radioactivity (6 h after injection): 3.58 ± 0.52 % injected dose per gram tissu | Liver radioactivity (6 h after injection): 4.70 ± 0.36 % injected dose per gram tissu | Lung radioactivity (6 h after injection): 1.77 ± 0.22 % injected dose per gram tissu | Muscle radioactivity (6 h after injection): 0.25 ± 0.04 % injected dose per gram tissu | Pancreas radioactivity (6 h after injection): 1.53 ± 0.38 % injected dose per gram tissu | Skin radioactivity (6 h after injection): 0.75 ± 0.46 % injected dose per gram tissu | Spleen radioactivity (6 h after injection): 1.08 ± 0.25 % injected dose per gram tissu | Stomach radioactivity (6 h after injection): 0.73 ± 0.60 % injected dose per gram tissu | Thyroid radioactivity (6 h after injection): 0.03 ± 0.02 % injected dose per organ | Blood radioactivity (24 h after injection): 0.08 ± 0.04 % injected dose per gram tissu | Bone radioactivity (24 h after injection): 0.04 ± 0.02 % injected dose per gram tissu | Brain radioactivity (24 h after injection): 0.02 ± 0.06 % injected dose per gram tissu | Colon radioactivity (24 h after injection): 15.91 ± 6.59 % injected dose per gram tissu | Heart radioactivity (24 h after injection): 0.22 ± 0.04 % injected dose per gram tissu | Intestine radioactivity (24 h after injection): 3.76 ± 1.38 % injected dose per gram tissu | Kidney radioactivity (24 h after injection): 0.62 ± 0.10 % injected dose per gram tissu | Liver radioactivity (24 h after injection): 0.52 ± 0.10 % injected dose per gram tissu | Lung radioactivity (24 h after injection): 0.38 ± 0.09 % injected dose per gram tissu | Muscle radioactivity (24 h after injection): 0.03 ± 0.01 % injected dose per gram tissu | Pancreas radioactivity (24 h after injection): 0.35 ± 0.05 % injected dose per gram tissu | Skin radioactivity (24 h after injection): 0.17 ± 0.11 % injected dose per gram tissu | Spleen radioactivity (24 h after injection): 0.24 ± 0.02 % injected dose per gram tissu | Stomach radioactivity (24 h after injection): 0.16 ± 0.04 % injected dose per gram tissu | Thyroid radioactivity (24 h after injection): 0.01 ± 0.00 % injected dose per organ
